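These data come from cells grown in 96-well plates and exposed to compound for 48 hours at five concentrations. The concentration for 50% growth inhibition is given as GI50.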 Calls of active or inactive are those of the source. Cut-off read from the data, not from the text of the source: active = GI50 up to about 1.1 µM and inactive = higher.
Tests used:
Test in all cases: inhibition of tumour cell growth, NCI panel, 48 h
[1] = test system: HL-60
[2] = test system: RXF 393
[3] = test system: ACHN
[4] = test system: OVCAR-5
[5] = test system: OVCAR-8
[6] = test system: HOP-92
[7] = test system: SR
[8] = test system: OVCAR-4
[9] = test system: OVCAR-3
[10] = test system: NCI-H23
[11] = test system: M14
[12] = test system: LOX IMVI
[13] = test system: HCC 2998
[14] = test system: CAKI-1
[15] = test system: HCT-15
[16] = test system: NCI-H460
[17] = test system: RPMI-8226
[18] = test system: KM12
[19] = test system: T47D
[20] = test system: MOLT-4

CCOC(=O)[C@H]1C[C@]23CN(C(=O)OC(C)(C)C)CC[C@H]2CCC2(SCCCS2)[C@@H]3N1C
GI50 [1]: 20.7 µM (inactive) | GI50 [2]: 33.8 µM (inactive) | GI50 [3]: 40.9 µM (inactive) | GI50 [4]: 50.5 µM (inactive) | GI50 [5]: 37.8 µM (inactive) | GI50 [6]: 14.1 µM (inactive) | GI50 [7]: 24 µM (inactive) | GI50 [8]: 16 µM (inactive) | GI50 [9]: 48.2 µM (inactive) | GI50 [10]: 42 µM (inactive) | GI50 [11]: 30.8 µM (inactive) | GI50 [12]: 30.9 µM (inactive) | GI50 [13]: 22.8 µM (inactive) | GI50 [14]: 33.8 µM (inactive) | GI50 [15]: 38.1 µM | GI50 [16]: 33.3 µM (inactive) | GI50 [17]: 20.4 µM (inactive) | GI50 [18]: 33.3 µM (inactive) | GI50 [19]: 25.8 µM (inactive) | GI50 [20]: 24.3 µM (inactive)

O=c1cc(-c2ccccc2)oc2ccc(Oc3nnnn3-c3ccccc3)cc12
GI50 [1]: > 100 µM (inactive) | GI50 [2]: > 51.5 µM (inactive) | GI50 [3]: > 64.4 µM (inactive) | GI50 [4]: > 100 µM (inactive) | GI50 [5]: 42 µM (inactive) | GI50 [6]: 20.1 µM (inactive) | GI50 [7]: > 33.1 µM (inactive) | GI50 [8]: > 28.2 µM (inactive) | GI50 [9]: > 100 µM (inactive) | GI50 [10]: > 62.7 µM (inactive) | GI50 [11]: > 100 µM (inactive) | GI50 [12]: > 42.7 µM (inactive) | GI50 [13]: > 100 µM (inactive) | GI50 [14]: > 50.1 µM (inactive) | GI50 [15]: > 100 µM | GI50 [16]: > 100 µM (inactive) | GI50 [17]: > 100 µM (inactive) | GI50 [18]: > 100 µM (inactive) | GI50 [19]: 12.1 µM (inactive) | GI50 [20]: > 100 µM (inactive)

O=C1Oc2ccccc2C(=O)/C1=C\Nc1nc(-c2ccccc2)cs1
GI50 [1]: 1.45 µM (inactive) | GI50 [2]: 12.4 µM (inactive) | GI50 [3]: 11.2 µM (inactive) | GI50 [4]: 19 µM (inactive) | GI50 [5]: 8 µM (inactive) | GI50 [6]: 11.1 µM (inactive) | GI50 [7]: 2.01 µM (inactive) | GI50 [8]: 58.7 µM (inactive) | GI50 [9]: 14.3 µM (inactive) | GI50 [10]: 16.7 µM (inactive) | GI50 [11]: 4.53 µM (inactive) | GI50 [12]: 5.2 µM (inactive) | GI50 [13]: 51.4 µM (inactive) | GI50 [14]: 3.76 µM (inactive) | GI50 [16]: > 100 µM (inactive) | GI50 [17]: 4.47 µM (inactive) | GI50 [18]: 16.7 µM (inactive) | GI50 [19]: 15.9 µM (inactive) | GI50 [20]: 2.28 µM (inactive)

C=CC(CCc1ccc(C(=O)OCC)cc1)c1c(N)nc(N)[nH]c1=O (centres undefined)
GI50 [1]: 28.5 µM (inactive) | GI50 [2]: > 100 µM (inactive) | GI50 [5]: 95.1 µM (inactive) | GI50 [6]: 12.6 µM (inactive) | GI50 [7]: > 100 µM (inactive) | GI50 [8]: 27.2 µM (inactive) | GI50 [9]: 72.1 µM (inactive) | GI50 [10]: 91.8 µM (inactive) | GI50 [11]: > 100 µM (inactive) | GI50 [12]: 45.3 µM (inactive) | GI50 [13]: > 100 µM (inactive) | GI50 [14]: 86.3 µM (inactive) | GI50 [15]: > 100 µM | GI50 [16]: > 100 µM (inactive) | GI50 [17]: 44.8 µM (inactive) | GI50 [18]: > 100 µM (inactive) | GI50 [19]: 72.4 µM (inactive) | GI50 [20]: 59.4 µM (inactive)

c1ccc(-c2nnn(CCN3CCCCC3)n2)cc1
GI50 [1]: > 100 µM (inactive) | GI50 [2]: > 100 µM (inactive) | GI50 [3]: > 100 µM (inactive) | GI50 [4]: > 100 µM (inactive) | GI50 [5]: > 100 µM (inactive) | GI50 [6]: > 100 µM (inactive) | GI50 [7]: > 100 µM (inactive) | GI50 [8]: > 100 µM (inactive) | GI50 [9]: > 100 µM (inactive) | GI50 [10]: > 100 µM (inactive) | GI50 [11]: > 100 µM (inactive) | GI50 [12]: > 100 µM (inactive) | GI50 [13]: > 100 µM (inactive) | GI50 [14]: > 100 µM (inactive) | GI50 [15]: > 100 µM | GI50 [16]: > 100 µM (inactive) | GI50 [17]: > 100 µM (inactive) | GI50 [18]: > 100 µM (inactive) | GI50 [19]: > 100 µM (inactive)

CSc1c(C#N)c(N)n(-c2ccc(Cl)cc2)c(=O)c1C#N
GI50 [1]: 46.3 µM (inactive) | GI50 [2]: > 100 µM (inactive) | GI50 [4]: > 100 µM (inactive) | GI50 [5]: 67.8 µM (inactive) | GI50 [6]: 21 µM (inactive) | GI50 [7]: 42.8 µM (inactive) | GI50 [8]: > 100 µM (inactive) | GI50 [9]: > 100 µM (inactive) | GI50 [10]: > 100 µM (inactive) | GI50 [11]: > 100 µM (inactive) | GI50 [12]: > 100 µM (inactive) | GI50 [13]: > 100 µM (inactive) | GI50 [14]: > 100 µM (inactive) | GI50 [15]: > 100 µM | GI50 [16]: > 100 µM (inactive) | GI50 [17]: > 100 µM (inactive) | GI50 [18]: > 100 µM (inactive) | GI50 [19]: > 100 µM (inactive) | GI50 [20]: 61.4 µM (inactive)

CC(C)=CCC[C@](C)(O[C@@H]1O[C@H](CO)[C@@H](O)[C@H](O)[C@H]1O)[C@H]1CC[C@]2(C)[C@@H]1[C@H](O)C[C@@H]1[C@@]3(C)CC[C@H](O)C(C)(C)[C@@H]3[C@@H](O[C@@H]3O[C@H](CO)[C@@H](O)[C@H](O)[C@H]3O)C[C@]12C [GINSENOSIDE RG1]
GI50 [1]: > 100 µM (inactive) | GI50 [2]: > 100 µM (inactive) | GI50 [3]: > 100 µM (inactive) | GI50 [4]: > 100 µM (inactive) | GI50 [5]: > 100 µM (inactive) | GI50 [6]: > 100 µM (inactive) | GI50 [7]: > 100 µM (inactive) | GI50 [8]: > 100 µM (inactive) | GI50 [9]: > 100 µM (inactive) | GI50 [10]: > 100 µM (inactive) | GI50 [11]: > 100 µM (inactive) | GI50 [12]: > 100 µM (inactive) | GI50 [13]: > 100 µM (inactive) | GI50 [14]: > 100 µM (inactive) | GI50 [15]: > 100 µM | GI50 [16]: > 100 µM (inactive) | GI50 [17]: > 100 µM (inactive) | GI50 [18]: > 100 µM (inactive) | GI50 [19]: > 100 µM (inactive)
